Measurements: patent publication US20090047742A1 (priority 2005, published 2009)

Legend:
[1] = tested on: human GAPDH and β-actin mRNA; assay: Northern blot analysis of cellular mRNA in T-Rex-293 cells; format: cell-based; settings: T-Rex-293 (mazF/pcDNA3) cells
Experimental: Northern blot analysis and real-time PCR (RT-PCR) was preformed as previously described (Zhang, Y., et al., Mol. Cell 12: 913-923 (2003); Cuconati, A., et al., Genes Dev. 17: 2922-2932 (2003)). Total RNA from tetracycline-treated (0, 24, 48 and 72 hr) or untreated (0, 24, 48 and 72 hr) T-Rex-293 (mazF/pcDNA3) and T-Rex-293 (mazF/mazE) cells for were isolated through the use of Trizol Reagent (Gibco, Carlsbad, Calif.). For Northern blot analysis, 10 μg of total RNA from each condition was subjected to formaldehyde-agarose gel electrophoresis followed by transfer onto GeneScreen Plus membrane (NEN Life Science Products, Boston, Mass.). The blot was hybridized with ^32P-labeled human GAPDH or β-actin cDNA. One hundred ng of total RNA was subjected to real time RT-PCR with the Taqman EZ-RT PCR kit (PE Applied Biosystems, Lincoln Centre Drive Foster City, Calif.) using recommended conditions provided by the vendor. Primers to analyze the level of human GAPDH mRNA were obtained from Applied Biosystems, and a probe for GAPDH was supplied with 5′ linkage to the reporter dye 2, 7-dimethoxy-4, 5-dichloro-6-carboxy-fluoroecein (JOE), and 3′ linkage to the quencher 6-carboxy-tetramethylrhodamine (TAMURA). β-actin primer sequences were 5′-[…]-3′ and 5′-[…]-3′. β-actin probe sequence was FAM-5′-[…] TTCC-3′-TAMURA. Reactions were carried out in triplicate and the relative amount of human GAPDH and β-actin mRNA was calculated from the difference in fluorescence signal in the 24-, 48- and 72-hr samples compared with the corresponding 0 hr sample.
To assess cellular mRNA levels, total RNA was isolated from whole cells of Tet-treated or -untreated T-Rex-293 cells and subjected to Northern blot analysis using human GAPDH and β-actin cDNA probes. […] Labeled single-stranded DNA fragments complementary to the specific mRNA being sought then are hybridized to the bound mRNA and the label detected by suitable means. […]

[2] = tested on: human GAPDH and β-actin mRNA; assay: real-time RT-PCR quantification of mRNA levels in T-Rex-293 cells; format: cell-based; settings: MazF induction for 72 hours, T-Rex-293 cells
Experimental: Northern blot analysis and real-time PCR (RT-PCR) was preformed as previously described (Zhang, Y., et al., Mol. Cell 12: 913-923 (2003); Cuconati, A., et al., Genes Dev. 17: 2922-2932 (2003)). Total RNA from tetracycline-treated (0, 24, 48 and 72 hr) or untreated (0, 24, 48 and 72 hr) T-Rex-293 (mazF/pcDNA3) and T-Rex-293 (mazF/mazE) cells for were isolated through the use of Trizol Reagent (Gibco, Carlsbad, Calif.). For Northern blot analysis, 10 μg of total RNA from each condition was subjected to formaldehyde-agarose gel electrophoresis followed by transfer onto GeneScreen Plus membrane (NEN Life Science Products, Boston, Mass.). The blot was hybridized with ^32P-labeled human GAPDH or β-actin cDNA. One hundred ng of total RNA was subjected to real time RT-PCR with the Taqman EZ-RT PCR kit (PE Applied Biosystems, Lincoln Centre Drive Foster City, Calif.) using recommended conditions provided by the vendor. […] Reactions were carried out in triplicate and the relative amount of human GAPDH and β-actin mRNA was calculated from the difference in fluorescence signal in the 24-, 48- and 72-hr samples compared with the corresponding 0 hr sample.

[3] = tested on: 28S and 18S ribosomal RNA; assay: ribosomal RNA by agarose-formaldehyde gel electrophoresis and ethidium bromide staining; format: cell-based, human; settings: MazF expressed for 72 hours, T-Rex-293 cells
Experimental: Total RNA from Tet-treated or -untreated T-Rex-293 cells at the indicated time points was probed with ^32P-labeled human GAPDH and β-actin cDNA. 28S and 18S ribosomal RNAs were visualized by agarose-formaldehyde gel electrophoresis followed by ethidium bromide staining. […] Human GAPDH and β-actin mRNA levels were quantified by real-time RT-PCR. Relative amounts of mRNA were calculated from the fluorescence signal in the 24-, 48- and 72-hours samples as compared with the corresponding 0-hour sample.

T-Rex-293 cells [4] = assay: phase contrast morphology / cytopathic effect; format: cell-based, human; settings: T-Rex-293, 72 hours post-induction of MazF
T-Rex-293 cells [5] = assay: trypan blue exclusion viability; format: cell-based, human; settings: T-Rex-293 (mazF/pcDNA3), MazF expression induced
Experimental: The viability of T-Rex-293 cells was determined by trypan blue exclusion as previously described (Degenhardt, K., et al., J. Biol. Chem. 277: 14127-14134 (2002)). T-Rex-293 (mazF/pcDNA3) and T-Rex-293 (mazF/mazE) cells were cultured for 24 hr before tetracycline treatment and then incubated for 0, 24, 48 and 72 hr at 37° C. in the presence or absence of 10 μg/ml tetracycline. After treatment, cells were collected by centrifugation of the supernatant plus adherent cells, which were harvested by trypsinization. Cells were resuspended in 500 μl of fresh medium containing 0.1% trypan blue solution (Sigma, St. Louis, Mo.) and then counted on a hemocytometer to assess the number of dead blue cells and the total number of cells counted. As a control for apoptotic cell death, T-Rex-293 (mazF/mazE) cells were treated with 1 μM staurosporine (Sigma, St. Louis, Mo.) for same time periods concurrently with tetracycline treatment.

T-Rex-293 cells [6] = assay: FACS analysis of propidium iodide labeling (sub-G1 peak); format: cell-based, human; settings: T-Rex-293 (mazF/pcDNA3), 72 hours of Tet induction
Experimental: T-Rex-293 (mazF/pcDNA3) cells and T-Rex-293 (mazF/mazE) cells treated with tetracycline for 0, 24, 48 and 72 hr were harvested by trypsinization, pelleted by centrifugation and resuspended in PBS. The cells were fixed with ice-cold 70% ethanol for 30 min and stained with propidium iodide (10 μg/ml) and RNase A (100 μg/ml) overnight. The cells were analyzed on a Becton Dickinson FACSCalibur system (San Jose, Calif.).

iBMK cells = assay: β-galactosidase assay, viability of iBMK cells co-expressing LacZ; format: cell-based, mouse
Experimental: β-galactosidase assays to determine the viability of iBMK cells co-expressing LacZ and MazF were performed as previously described (Han, J., Sabbatini, P., and White, E. Mol. Cell. Biol. 16: 5857-5864 (1996)). W2, D3, X2 and K1 co-transfected with pcDNA6/His/LacZ and pcDNA4/TO/mazF or pcDNA3 for 48 hr were fixed in 1% glutaraldehyde and then stained with 0.2% X-gal solution at 37° C. for 24 hr. β-Galactosidase positive blue cells and the total number of cells (approximately 200 cells) were independently counted on a 6-cm diameter dish.

## MazF: E. coli toxin; sequence specific endoribonuclease (mRNA interferase) cleaving single-stranded RNAs at ACA sequences; expressed from plasmid pcDNA4/TO/mazF
[1]; 48 hours post-induction of MazF
  levels of both GAPDH and β-actin mRNAs (Northern blot): almost completely lost
[1]; after 24 hours of MazF induction by Tet
  levels of both GAPDH and β-actin mRNAs (Northern blot): dramatically decreased
[2]
  decrease of both GAPDH and β-actin mRNAs (real-time RT-PCR): > 90%
[3]
  levels of 28S and 18S ribosomal RNA: did not change
T-Rex-293 cells [4]
  number of attached cells: dramatically decreased
T-Rex-293 cells [5]
  cell viability (trypan blue exclusion): dropped strikingly
T-Rex-293 cells [6]
  sub-G1 peak: 65.9%
iBMK cells; D3 (bax−/− bak−/−) iBMK cells expressing MazF
  β-galactosidase expression: little effect
iBMK cells; K1 (bak−/−) iBMK cells
  response to MazF (β-galactosidase assay): preferentially resistant
iBMK cells; W2 iBMK cells transiently co-expressing LacZ and MazF, 48 hours post-transfection
  β-galactosidase positive cells: significant decrease
iBMK cells; X2 (bax−/−) iBMK cells expressing MazF
  number of β-galactosidase positive cells: significantly decreased
iBMK cells; nbk/bik−/− iBMK cells
  response to MazF-induced cell death (β-galactosidase assay): preferentially resistant
iBMK cells; puma−/−, bim−/−, noxa−/− iBMK cells transiently expressing MazF
  number of β-galactosidase positive cells: significantly decreased
